In patent US10532048B2, “Tetrahydroisoquinolin-1-one derivative or salt thereof” (Seldar Pharma Inc., priority 2007, dated 2020):

Biological target: 5-HT3 receptor (Homo sapiens (Human), UniProt P46098)
Experiment: not given
Details: IBS patients; cited from earlier work

Chain of 5-HT3 receptor (P46098 24-478): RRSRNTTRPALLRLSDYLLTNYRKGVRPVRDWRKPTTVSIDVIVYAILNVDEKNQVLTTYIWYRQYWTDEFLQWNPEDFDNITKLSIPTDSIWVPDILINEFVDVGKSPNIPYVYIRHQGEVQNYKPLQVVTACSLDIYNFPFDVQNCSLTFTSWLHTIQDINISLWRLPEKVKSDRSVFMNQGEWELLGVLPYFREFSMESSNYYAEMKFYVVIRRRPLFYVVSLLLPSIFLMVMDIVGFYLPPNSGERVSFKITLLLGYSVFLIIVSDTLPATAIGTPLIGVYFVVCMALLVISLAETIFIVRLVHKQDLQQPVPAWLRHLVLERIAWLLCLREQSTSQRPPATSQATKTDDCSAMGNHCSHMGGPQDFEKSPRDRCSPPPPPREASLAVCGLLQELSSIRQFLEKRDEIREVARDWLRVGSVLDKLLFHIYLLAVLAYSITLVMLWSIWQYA

In the case of `Cc1[nH]cnc1CN1CCc2c(c3ccccc3n2C)C1=O` [alosetron], the “improving rate for abdominal symptoms and diarrhea” value is given as 40 to 60%.

Biological target: BB2 receptor (Homo sapiens (Human), UniProt P30550)
Experiment: BB2 receptor binding test (125I [Tyr4] bombesin, PC-3 cell membrane sample)
Details: 125I [Tyr4] bombesin 0.075 nM, room temperature 2 hours, read-out: IC50 (50% binding inhibition concentration)
Description: A BB2 receptor binding test was carried out using a membrane sample prepared from a human prostate cancer-derived PC-3 cell. […] The cells detached by a trypsin treatment were added with a 50 mM Tris-HCl buffer (pH 7.4, containing 0.2 mg/ml trypsin inhibitor and 0.2 mg/ml benzamidine), and homogenized by Polytron. The cell suspension was centrifuged at 1,500 rpm for 10 minutes, and the supernatant thus obtained was subjected to 1 hour of ultracentrifugation at 37,000×g. The precipitate was suspended in the aforementioned buffer to a concentration of 0.4 mg protein/ml, and stored at −80° C.
The BB2 receptor binding test was carried out by the following method, and the receptor antagonistic activity of a compound to be tested was calculated. […] Non-specific binding was measured using 1 μM of bombesin. After completion of the incubation, the reaction solution was filtered through a Whatman GF/B filter which had been soaked in 0.5% polyethyleneimine. The radioactivity on the filter was measured using a microplate scintillation counter (Top Count, Perkin-Elmer Co., Ltd.). Further, Ex represents the number of the Example compound.

Chain of BB2 receptor (Homo sapiens (Human), UniProt P30550) (P30550 whole entry): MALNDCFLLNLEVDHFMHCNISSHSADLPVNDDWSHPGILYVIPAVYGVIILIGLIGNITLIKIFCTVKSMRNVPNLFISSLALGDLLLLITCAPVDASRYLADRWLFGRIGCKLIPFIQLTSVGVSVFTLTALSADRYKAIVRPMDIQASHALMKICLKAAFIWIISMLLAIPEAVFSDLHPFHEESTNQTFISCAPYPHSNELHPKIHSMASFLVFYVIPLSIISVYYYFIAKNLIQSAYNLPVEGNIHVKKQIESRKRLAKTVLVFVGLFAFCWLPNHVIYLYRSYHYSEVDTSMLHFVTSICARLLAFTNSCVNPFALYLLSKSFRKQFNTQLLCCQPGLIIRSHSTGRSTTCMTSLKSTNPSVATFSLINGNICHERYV

In order of rising IC50:
1. C[C@@H](NC(=O)[C@@H]1c2ccccc2C(=O)N([C@H]2CCCC[C@@H]2NS(C)(=O)=O)[C@H]1c1ccc(Cl)cc1Cl)c1ccccc1 [Ex 236]  3 nM
2. CS(=O)(=O)N[C@H]1CCCC[C@@H]1N1C(=O)c2ccccc2[C@@H](C(=O)NOCc2cccc(OCC(=O)O)c2)[C@@H]1c1ccc(Cl)cc1Cl [Ex 631]  4.5 nM
3. CS(=O)(=O)N[C@H]1CCCC[C@@H]1N1C(=O)c2ccccc2[C@@H](C(=O)NOCc2cc(C(=O)O)cs2)[C@@H]1c1ccc(Cl)cc1Cl [Ex 542]  4.7 nM
4. CS(=O)(=O)N[C@H]1CCCC[C@@H]1N1C(=O)c2ccccc2[C@@H](C(=O)NOCc2cccc(C(=O)O)c2)[C@@H]1c1ccc(Cl)cc1Cl [Ex 560]  4.8 nM
5. CS(=O)(=O)N[C@H]1CCCC[C@@H]1N1C(=O)c2ccccc2[C@@H](C(=O)NOCc2ccccn2)[C@@H]1c1ccc(Cl)cc1Cl [Ex 589]  5.7 nM
6. CS(=O)(=O)NC(=O)c1cccc(CCNC(=O)[C@@H]2c3ccccc3C(=O)N([C@H]3CCCC[C@@H]3NS(C)(=O)=O)[C@H]2c2ccc(Cl)cc2Cl)c1 [Ex 700]  6.7 nM
7. CS(=O)(=O)N[C@H]1CCCC[C@@H]1N1C(=O)c2ccccc2[C@@H](C(=O)NCCc2cccc(C(F)(F)C(=O)O)c2)[C@@H]1c1ccc(Cl)cc1Cl [Ex 712]  6.7 nM
8. CS(=O)(=O)N[C@H]1CCCC[C@@H]1N1C(=O)c2ccccc2[C@@H](C(=O)NOCc2ccc(CC(=O)O)cc2)[C@@H]1c1ccc(Cl)cc1Cl [Ex 856]  6.8 nM
9. CS(=O)(=O)N[C@H]1CCCC[C@@H]1N1C(=O)c2ccccc2[C@@H](C(=O)NCCc2ccc(CC(=O)O)cc2)[C@@H]1c1ccc(Cl)cc1Cl [Ex 701]  7.4 nM
10. CS(=O)(=O)N[C@H]1CCCC[C@@H]1N1C(=O)c2ccccc2[C@@H](C(=O)NOCc2cccc(OCCCC(=O)O)c2)[C@@H]1c1ccc(Cl)cc1Cl [Ex 709]  8.9 nM
11. O=C(NCCc1ccccn1)[C@@H]1c2ccccc2C(=O)N([C@H](CO)Cc2ccccc2)[C@H]1c1ccc(Cl)cc1Cl [Ex 61]  12.8 nM

Tested on: male Wistar rat
Experiment: Restraint stress-induced defecation model
Assay type: in vivo
Details: 1 h, read-out: Inhibitory Rate (%) of number of feces excreted
Description: The compound to be tested of the present test was used by dissolving in water for injection containing 20% propylene glycol+20% Tween 80 or a 0.5% MC (methyl cellulose) solution.
The number of feces excreted during a period from the restriction commencement to 1 hour thereafter was measured. Normal group was put into a separate cage, and number of feces excreted during 1 hour was measured in the same manner.

Compound `CS(=O)(=O)N[C@H]1CCCC[C@@H]1N1C(=O)c2ccccc2[C@@H](C(=O)NOCc2cc(C(=O)O)cs2)[C@@H]1c1ccc(Cl)cc1Cl` [Ex 542] has an inhibition in vivo at 1 mg/kg of 40%.

Same assay, conditions: oral administration 1 mg/kg, 15 minutes before restraint, feces counted for 1 hour, read-out: Inhibitory Rate (%) of number of feces excreted

In order of falling inhibition in vivo at 1 mg/kg:
1. CS(=O)(=O)N[C@H]1CCCC[C@@H]1N1C(=O)c2ccccc2[C@@H](C(=O)NOCc2ccccn2)[C@@H]1c1ccc(Cl)cc1Cl [Ex 589]  73.9%
2. CS(=O)(=O)NC(=O)c1cccc(CCNC(=O)[C@@H]2c3ccccc3C(=O)N([C@H]3CCCC[C@@H]3NS(C)(=O)=O)[C@H]2c2ccc(Cl)cc2Cl)c1 [Ex 700]  69.8%
3. CS(=O)(=O)N[C@H]1CCCC[C@@H]1N1C(=O)c2ccccc2[C@@H](C(=O)NOCc2cccc(C(=O)O)c2)[C@@H]1c1ccc(Cl)cc1Cl [Ex 560]  62.1%
4. CS(=O)(=O)N[C@H]1CCCC[C@@H]1N1C(=O)c2ccccc2[C@@H](C(=O)NOCc2ccc(CC(=O)O)cc2)[C@@H]1c1ccc(Cl)cc1Cl [Ex 856]  61.4%
5. CS(=O)(=O)N[C@H]1CCCC[C@@H]1N1C(=O)c2ccccc2[C@@H](C(=O)NCCc2cccc(C(F)(F)C(=O)O)c2)[C@@H]1c1ccc(Cl)cc1Cl [Ex 712]  55%
6. CS(=O)(=O)N[C@H]1CCCC[C@@H]1N1C(=O)c2ccccc2[C@@H](C(=O)NOCc2cccc(OCC(=O)O)c2)[C@@H]1c1ccc(Cl)cc1Cl [Ex 631]  53.8%
7. CS(=O)(=O)N[C@H]1CCCC[C@@H]1N1C(=O)c2ccccc2[C@@H](C(=O)NOCc2cccc(OCCCC(=O)O)c2)[C@@H]1c1ccc(Cl)cc1Cl [Ex 709]  41.5%
8. CS(=O)(=O)N[C@H]1CCCC[C@@H]1N1C(=O)c2ccccc2[C@@H](C(=O)NCCc2ccc(CC(=O)O)cc2)[C@@H]1c1ccc(Cl)cc1Cl [Ex 701]  41.3%

Tested on: BB2 receptor
Experiment: not given
Details: stress-induced defecation model; cited from earlier work

For RC-3095, the “efficacy for abnormal bowel motility” value is listed as “effective”.

Tested on: BB2 receptor
Experiment: not given
Details: abdominal pain model induced by large intestinal distension; cited from earlier work

In the case of RC-3095, the “efficacy for abdominal symptom (abdominal muscle contraction reaction as index)” value is given as “effective”.
